Test [1] concerns the target T1, cytoplasmic domain of the human VEGF receptor (VEGFR-2) (Homo sapiens, UniProt P35968).
T1 construct: The cytoplasmic domain of the human VEGF receptor (VEGFR-2) was expressed as a Histidine-tagged fusion protein; Histidine tag
The experiment in a line: KDR Assay. In kind it is biochemical. The following applies: His-VEGFR-2; 3.6 μM ATP. A digest of the protocol: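 His-tagged human VEGFR-2 cytoplasmic domain from baculovirus-infected insect cells, acting on poly-Glu-Tyr (4:1)-coated plates with 3.6 μM ATP in Hepes pH 7.4 with MgCl2/MnCl2 and 5% final DMSO, 10 min at 25 °C. Phosphotyrosine detected by peroxidase-conjugated antibody ELISA at 492 nm; IC50 from blank-subtracted OD versus concentration.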

Test [2] deals with VEGF induced increases in intracellular calcium levels in HUVEC (human umbilical vein endothelial cells). The experiment in a line: VEGF Stimulated Ca++ Signal in vitro (FLIPR). The class given is cell-based. The following applies: VEGF 5 ng/mL; for IC50: 0.01 to 10.0 μM. Put shortly:
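HUVEC loaded with Fluo-4 (45 min, 37° C.), washed, then pre-incubated 30 min with compound (10 μM single dose or 0.01–10.0 μM; 0.1% DMSO) before 5 ng/mL VEGF. Fluorescence at 516 nm read by FLIPR; IC50 from % inhibition of max-min VEGF response.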

T1 sequence (P35968 786-1356): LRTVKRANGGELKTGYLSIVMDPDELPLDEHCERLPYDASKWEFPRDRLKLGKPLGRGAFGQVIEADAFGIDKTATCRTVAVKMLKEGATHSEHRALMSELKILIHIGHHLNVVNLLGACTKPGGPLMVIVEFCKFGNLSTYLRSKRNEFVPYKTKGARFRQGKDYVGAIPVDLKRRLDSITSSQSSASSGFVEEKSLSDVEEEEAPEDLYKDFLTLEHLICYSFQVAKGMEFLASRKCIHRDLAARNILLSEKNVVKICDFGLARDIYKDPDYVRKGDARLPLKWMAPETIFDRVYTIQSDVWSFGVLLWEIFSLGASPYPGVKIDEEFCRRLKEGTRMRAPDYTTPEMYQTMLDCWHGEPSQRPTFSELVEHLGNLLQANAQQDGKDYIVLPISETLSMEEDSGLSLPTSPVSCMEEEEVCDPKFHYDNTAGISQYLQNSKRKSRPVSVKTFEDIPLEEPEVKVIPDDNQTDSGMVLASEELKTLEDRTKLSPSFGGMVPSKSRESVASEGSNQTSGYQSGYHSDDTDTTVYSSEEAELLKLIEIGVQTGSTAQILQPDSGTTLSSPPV

The IC50 is the concentration that gives 50% inhibition. What is called inhibition is how much of the control response was suppressed. Consider `O=C(O)CCc1cccc(NC=C2C(=O)Nc3ccc(Cl)cc32)c1` [Example 143, 3-{3-[(5-Chloro-2-oxo-1,2-dihydro-indol-3-ylidenemethyl)-amino]-phenyl}-propionic acid], for which the IC50 in test [1] stood at 520 nM; in test [2] (Homo sapiens), 7610 nM. In addition, the inhibition at 10 µM in test [2] (Homo sapiens) amounted to 66.9%.
For `O=C(O)CCc1ccc(NC=C2C(=O)Nc3ccccc32)cc1` [Example 144, 3-{4-[(2-Oxo-1,2-dihydro-indol-3-ylidenemethyl)-amino]-phenyl}-propionic acid] the same measures were 460 nM, 2700 nM and 96.5%.
With `Cc1cccc2c1C(=CNc1ccc(CCC(=O)O)cc1)C(=O)N2` [Example 145, 3-{4-[(4-Methyl-2-oxo-1,2-dihydro-indol-3-ylidenemethyl)-amino]-phenyl}-propionic acid], the IC50 in test [1] was 190 nM; in test [2] it was 590 nM; in test [2] (Homo sapiens), no more than 1000 nM. Moreover, the inhibition at 10 µM in test [2] (Homo sapiens) was 98.7%.
On to `O=C(O)CCc1ccc(NC=C2C(=O)Nc3ccc(Cl)cc32)cc1` [Example 146, 3-{4-[(5-Chloro-2-oxo-1,2-dihydro-indol-3-ylidenemethyl)-amino]-phenyl}-propionic acid], for which the midpoint of inhibition in test [1], the IC50, lay at 510 nM. Further, in test [2] (Homo sapiens), the inhibition at 10 µM amounted to 98.4% and the half-inhibitory concentration (IC50) amounted to 2070 nM.
For `CCc1cccc(NC=C2C(=O)Nc3cccc(C)c32)c1` [Example 147, 3-[(3-Ethyl-phenylamino)-methylene]-4-methyl-1,3-dihydro-indol-2-one] the same measures were 150 nM, 71.6% and 5490 nM.
As for `CCc1ccc(NC=C2C(=O)Nc3ccc(Cl)cc32)cc1` [Example 149, 5-Chloro-3-[(4-ethyl-phenylamino)-methylene]-1,3-dihydro-indol-2-one], the IC50 in test [1] is 620 nM. For the same compound, the inhibition at 10 µM in test [2] (Homo sapiens) was 17.7%.
With `O=C(O)CCCc1ccc(NC=C2C(=O)Nc3ccc(Cl)cc32)cc1` [Example 150, 4-{4-[(5-Chloro-2-oxo-1,2-dihydro-indol-3-ylidenemethyl)-amino]-phenyl}-butyric acid], the IC50 in test [1] was found to be 300 nM; in test [2] (Homo sapiens) it was 1850 nM. Also, the inhibition at 10 µM in test [2] (Homo sapiens) was 90.9%.
Compound `CCc1ccc(NC=C2C(=O)Nc3cccc(C)c32)cc1` [Example 151, 3-[(4-Ethyl-phenylamino)-methylene]-4-methyl-1,3-dihydro-indol-2-one] returned an IC50 in test [1] of 460 nM. The inhibition at 10 µM in test [2] (Homo sapiens) worked out at 50.8%.
On to `O=C1Nc2ccccc2C1=CNc1ccc(N2CCCCC2)cc1` [Example 158, 3-[(4-Piperidin-1-yl-phenylamino)-methylene]-1,3-dihydro-indol-2-one], for which, in test [1], it took 390 nM to reach half-maximal inhibition (IC50). Moreover, in test [2] (Homo sapiens), the inhibition at 10 µM is 97.5% and the IC50 turned out to be 1140 nM.
For `CCN(CC)Cc1cc(NC=C2C(=O)Nc3ccccc32)ccc1O` [Example 160, 3-[(3-Diethylaminomethyl-4-hydroxy-phenylamino)-methylene]-1,3-dihydro-indol-2-one] the same measures were 700 nM, 91.4% and 1290 nM.
For `O=C1Nc2ccc(F)cc2C1=CNc1ccc2[nH]ccc2c1` [Example 162, 5-Fluoro-3-[(1 h-indol-5-ylamino)-methylene]-1,3-dihydro-indol-2-one] the same measures were 300 nM, 89.9% and 1050 nM.
For the compound `O=C1Nc2ccc(F)cc2C1=CNc1ccc2cn[nH]c2c1` [Example 163, 5-Fluoro-3-[(1 h-indazol-6-ylamino)-methylene]-1,3-dihydro-indol-2-one], the IC50 in test [1] was 320 nM; in test [2], 850 nM; in test [2] (Homo sapiens), no more than 1000 nM. Besides, the inhibition at 10 µM in test [2] (Homo sapiens) is 95.3%.
Compound `COc1ccc(NC=C2C(=O)Nc3ccc(F)cc32)cc1O` [Example 164, 5-Fluoro-3-[(3-hydroxy-4-methoxy-phenylamino)-methylene]-1,3-dihydro-indol-2-one] had an IC50 in test [1] of 380 nM. For the same compound, the inhibition at 10 µM in test [2] (Homo sapiens) was found to be 98.8%.
Compound `O=C(O)CCc1ccc(NC=C2C(=O)Nc3ccc(F)cc32)cc1` [Example 165, 3-{4-[(5-Fluoro-2-oxo-1,2-dihydro-indol-3-ylidenemethyl)-amino]-phenyl}-propionic acid] yielded an IC50 in test [1] of 360 nM. Further, in test [2] (Homo sapiens), the inhibition at 10 µM came to 99.3% and the IC50 was 1340 nM.
In test [1], `NS(=O)(=O)c1ccc(NC=C2C(=O)Nc3ccc(F)cc32)cc1` [Example 166, 4-[(5-Fluoro-2-oxo-1,2-dihydro-indol-3-ylidenemethyl)-amino]-benzenesulfonamide] displayed an IC50 of 660 nM. Also, the inhibition at 10 µM in test [2] (Homo sapiens) was 49.2%.
For `CN1CCN(c2ccc(NC=C3C(=O)Nc4ccc(F)cc43)cc2)CC1` [Example 168, 5-Fluoro-3-{[4-(4-methyl-piperazin-1-yl)-phenylamino]-methylene}-1,3-dihydro-indol-2-one] the same measures were 140 nM and 94.3%.
Take `O=C1Nc2ccc(F)cc2C1=CNc1ccccc1` [Example 169, 5-Fluoro-3-phenylaminomethylene-1,3-dihydro-indol-2-one]: the IC50 in test [1] was found to be 610 nM; in test [2] (Homo sapiens) it was 1160 nM. Further, in test [2] (Homo sapiens), the inhibition at 10 µM was 93.4%.
For `NC(=O)c1ccc(NC=C2C(=O)Nc3ccc(F)cc32)cc1` [Example 170, 4-[(5-Fluoro-2-oxo-1,2-dihydro-indol-3-ylidenemethyl)-amino]-benzamide], the IC50 is 410 nM in test [1], 590 nM in test [2] and no more than 1000 nM in test [2] (Homo sapiens). For the same compound, the inhibition at 10 µM in test [2] (Homo sapiens) was found to be 96.7%.
Regarding `CSc1ccc(NC=C2C(=O)Nc3ccc(F)cc32)cc1` [Example 171, 5-Fluoro-3-[(4-methylsulfanyl-phenylamino)-methylene]-1,3-dihydro-indol-2-one], the IC50 in test [1] was 430 nM. For the same compound, the inhibition at 10 µM in test [2] (Homo sapiens) is 38.1%.
As for `COc1ccc(NC=C2C(=O)Nc3ccc(F)cc32)cc1F` [Example 172, 5-Fluoro-3-[(3-fluoro-4-methoxy-phenylamino)-methylene]-1,3-dihydro-indol-2-one], the IC50 in test [1] amounted to 690 nM. Further, in test [2] (Homo sapiens), the inhibition at 10 µM stood at 93.3% and the IC50 was found to be 1400 nM.
The matching figures for `O=C1Nc2ccc(F)cc2C1=CNc1ccc2ncsc2c1` [Example 173, 3-(Benzothiazol-6-ylaminomethylene)-5-fluoro-1,3-dihydro-indol-2-one]: 520 nM, 94.5% and 1480 nM.
Compound `O=C(O)Cc1ccc(NC=C2C(=O)Nc3ccc(F)cc32)cc1` [Example 174, {4-[(5-Fluoro-2-oxo-1,2-dihydro-indol-3-ylidenemethyl)-amino]-phenyl}-acetic acid] yielded an IC50 in test [1] of 840 nM. Besides, in test [2] (Homo sapiens), the inhibition at 10 µM was 76.4% and the IC50 turned out to be 6020 nM.
Turning to `O=C(O)CCc1cccc(NC=C2C(=O)Nc3ccc(F)cc32)c1` [Example 175, 3-{3-[(5-Fluoro-2-oxo-1,2-dihydro-indol-3-ylidenemethyl)-amino]-phenyl}-propionic acid], it took 710 nM to reach half-maximal inhibition in test [1] (IC50). Further, the inhibition at 10 µM in test [2] (Homo sapiens) came to 38%.
Take `CCc1cccc(NC=C2C(=O)Nc3ccc(F)cc32)c1` [Example 176, 3-[(3-Ethyl-phenylamino)-methylene]-5-fluoro-1,3-dihydro-indol-2-one]: the values for the IC50 in test [1] and in test [2] (Homo sapiens) were 800 nM and 2540 nM, respectively. For the same compound, the inhibition at 10 µM in test [2] (Homo sapiens) came to 67.9%.

The record behind these values is US20030225152A1, “3-(Arylamino)methylene-1, 3-dihydro-2h-indol-2-ones as kinase inhibitors” (priority 2001, published 2003).
